Measurements: PubChem BioAssay AID248 (DTP/NCI, 2004)
Where “and” joins values, the source holds several entries; their conditions need not be identical. Equal values may be shown once. Toxic doses and inconclusive results are not listed.

System: L1210 leukemia ip in BDF1 mice, survival T/C
Test: NCI In Vivo Anticancer Drug Screen. Data for tumor model L1210 Leukemia (intraperitoneal) in B6D2F1 (BDF1) mice
Conditions: endpoint: mean survival time, higher = longer survival
Method in brief: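 Ratio derived from survival: compound-dosed mice over vehicle-dosed mice, all bearing a transplantable tumor.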

[1] = dose: 100.0 mg/kg/injection, schedule: Q01DX001 (ip), vehicle: carboxymethylcellulose (CMC)
[2] = dose: 200.0 mg/kg/injection, schedule: Q01DX001 (ip), vehicle: carboxymethylcellulose (CMC)
[3] = dose: 400.0 mg/kg/injection, schedule: Q01DX001 (ip), vehicle: carboxymethylcellulose (CMC)
[4] = dose: 100.0 mg/kg/injection, schedule: Q01DX001 (ip), vehicle: acetone
[5] = dose: 100.0 mg/kg/injection, schedule: Q01DX001 (ip), vehicle: saline
[6] = dose: 200.0 mg/kg/injection, schedule: Q01DX001 (ip), vehicle: saline
[7] = dose: 400.0 mg/kg/injection, schedule: Q01DX001 (ip), vehicle: saline
[8] = dose: 50.0 mg/kg/injection, schedule: Q04DX003 (ip), vehicle: saline
[9] = dose: 100.0 mg/kg/injection, schedule: Q04DX003 (ip), vehicle: saline
[10] = dose: 200.0 mg/kg/injection, schedule: Q01DX Z (ip), vehicle: methylcellulose (MC)
[11] = dose: 100.0 mg/kg/injection, schedule: Q01DX009 (ip), vehicle: saline with Tween-80
[12] = dose: 200.0 mg/kg/injection, schedule: Q01DX009 (ip), vehicle: saline with Tween-80
[13] = dose: 400.0 mg/kg/injection, schedule: Q01DX009 (ip), vehicle: saline with Tween-80

`O=[N+]([O-])c1ccc(OCCOCCBr)c(Cl)c1` was tested, and the T/C [1] was 98 % of control and 101 % of control, the T/C (dose: 100.0 mg/kg/injection, schedule: Q01DX009 (ip), vehicle: carboxymethylcellulose (CMC)) was 101 % of control and 110 % of control and the T/C (dose: 100.0 mg/kg/injection, schedule: Q04DX003 (ip), vehicle: carboxymethylcellulose (CMC)) was 100 % of control and 103 % of control. The T/C [2] was 98 % of control and 90 % of control, the T/C (dose: 200.0 mg/kg/injection, schedule: Q01DX009 (ip), vehicle: carboxymethylcellulose (CMC)) was 95 % of control and 97 % of control and the T/C (dose: 200.0 mg/kg/injection, schedule: Q04DX003 (ip), vehicle: carboxymethylcellulose (CMC)) was 100 % of control and 106 % of control. The T/C [3] was 97 % of control and 101 % of control, the T/C (dose: 400.0 mg/kg/injection, schedule: Q01DX009 (ip), vehicle: carboxymethylcellulose (CMC)) was 95 % of control and 101 % of control and the T/C (dose: 400.0 mg/kg/injection, schedule: Q04DX003 (ip), vehicle: carboxymethylcellulose (CMC)) was 94 % of control.

With `COc1ccc(C(OC(=O)c2ccc([N+](=O)[O-])cc2)c2ccccc2)cc1` (stereo unspecified) the T/C [1] was 88 % of control, the T/C [2] was 91 % of control and the T/C [3] was 93 % of control.

With `CN1CCCC1c1ccc(Br)cc1` (stereo unspecified) the T/C [4] was 95 % of control.

In the case of `NCCCCC(=O)NC(CCCCNC(=O)OCc1ccccc1)C(=O)NCCCCC(=O)NC(CCCCNC(=O)OCc1ccccc1)C(=O)NCCCCC(=O)NC(CCCCNC(=O)OCc1ccccc1)C(=O)NCCCCC(=O)NC(CCCCNC(=O)OCc1ccccc1)C(=O)NCCCCC(=O)NC(CCCCNC(=O)OCc1ccccc1)C(=O)O` (stereo unspecified), the T/C [5] is reported as 90 % of control.

`COc1ccc(/C=N/O)cc1` was tested, and the T/C (dose: 50.0 mg/kg/injection, schedule: Q01DX001 (ip), vehicle: saline) was 100 % of control, the T/C [5] was 93 % of control and the T/C [6] was 100 % of control. For the same molecule, the T/C [7] was 96 % of control.

`CSc1nn[nH]n1` was tested, and the T/C (dose: 25.0 mg/kg/injection, schedule: Q01DX009 (ip), vehicle: acetone) was 93 % of control, the T/C (dose: 50.0 mg/kg/injection, schedule: Q01DX009 (ip), vehicle: acetone) was 96 % of control and the T/C [8] was 92 % of control. The T/C [4] was 98 % of control, the T/C (dose: 100.0 mg/kg/injection, schedule: Q01DX009 (ip), vehicle: acetone) was 91 % of control and the T/C [9] was 97 % of control. The T/C (dose: 200.0 mg/kg/injection, schedule: Q01DX001 (ip), vehicle: acetone) was 93 % of control.

For `CSc1nc(SCc2ccc(Cl)cc2)ncc1C`, the T/C (dose: 50.0 mg/kg/injection, schedule: Q01DX Z (ip), vehicle: methylcellulose (MC)) was 92 % of control and the T/C [10] was 94 % of control.

`O=C(/C=C/C=C/c1cccc([N+](=O)[O-])c1)CCl` was tested, and the T/C [5] was 101 % of control, the T/C [6] was 95 % of control and the T/C [7] was 103 % of control.

`CCSc1nc(Cl)cc(Sc2nc(N)nc3nc[nH]c23)n1` was tested, and the T/C (dose: 10.0 mg/kg/injection, schedule: Q01DX009 (ip), vehicle: saline) was 104 % of control, the T/C (dose: 12.0 mg/kg/injection, schedule: Q01DX001 (ip), vehicle: saline) was 100 % of control and the T/C (dose: 15.0 mg/kg/injection, schedule: Q04DX003 (ip), vehicle: saline) was 116 % of control. The T/C (dose: 19.0 mg/kg/injection, schedule: Q01DX001 (ip), vehicle: saline) was 119 % of control, the T/C (dose: 20.0 mg/kg/injection, schedule: Q01DX009 (ip), vehicle: saline) was 115 % of control and the T/C (dose: 30.0 mg/kg/injection, schedule: Q04DX003 (ip), vehicle: saline) was 122 % of control. For the same molecule, the T/C (dose: 45.0 mg/kg/injection, schedule: Q01DX001 (ip), vehicle: saline) was 123 % of control, the T/C [8] was 118 % of control and the T/C (dose: 66.0 mg/kg/injection, schedule: Q01DX001 (ip), vehicle: saline) was 114 % of control and 123 % of control. For the same molecule, the T/C (dose: 100.0 mg/kg/injection, schedule: Q01DX009 (ip), vehicle: saline) was 156 % of control, the T/C (dose: 100.0 mg/kg/injection, schedule: Q01DX Z (ip), vehicle: methylcellulose (MC)) was 115 % of control and the T/C (dose: 120.0 mg/kg/injection, schedule: Q04DX003 (ip), vehicle: saline) was 151 % of control. The T/C (dose: 132.0 mg/kg/injection, schedule: Q04DX003 (ip), vehicle: saline with Tween-80) was 175 % of control, the T/C [6] was 100 % of control and the T/C [10] was 122 % of control. The T/C (dose: 200.0 mg/kg/injection, schedule: Q04DX003 (ip), vehicle: Klucel (hydroxypropylcellulose) (HPC)) was 158 % of control, the T/C (dose: 200.0 mg/kg/injection, schedule: Q04DX003 (ip), vehicle: saline with Tween-80) was 200 % of control and the T/C (dose: 240.0 mg/kg/injection, schedule: Q01DX001 (ip), vehicle: saline) was 193 % of control. For the same molecule, the T/C (dose: 240.0 mg/kg/injection, schedule: Q04DX003 (ip), vehicle: saline) was 204 % of control, the T/C (dose: 300.0 mg/kg/injection, schedule: Q04DX003 (ip), vehicle: Klucel (hydroxypropylcellulose) (HPC)) was 168 % of control and the T/C (dose: 300.0 mg/kg/injection, schedule: Q04DX003 (ip), vehicle: saline with Tween-80) was 180 % of control. The T/C (dose: 360.0 mg/kg/injection, schedule: Q01DX001 (ip), vehicle: saline) was 205 % of control, the T/C (dose: 360.0 mg/kg/injection, schedule: Q04DX003 (ip), vehicle: saline) was 188 % of control and the T/C (dose: 400.0 mg/kg/injection, schedule: Q01DX009 (ip), vehicle: saline) was 108 % of control. The T/C (dose: 400.0 mg/kg/injection, schedule: Q01DX Z (ip), vehicle: carboxymethylcellulose (CMC)) was 102 % of control, the T/C (dose: 600.0 mg/kg/injection, schedule: Q01DX009 (ip), vehicle: saline) was 121 % of control and the T/C (dose: 800.0 mg/kg/injection, schedule: Q01DX Z (ip), vehicle: carboxymethylcellulose (CMC)) was 90 % of control. The T/C (dose: 810.0 mg/kg/injection, schedule: Q01DX001 (ip), vehicle: saline) was 124 % of control and the T/C (dose: 810.0 mg/kg/injection, schedule: Q04DX003 (ip), vehicle: saline) was 119 % of control.

In the case of `Cc1nc(N)[nH]c(=O)c1CCCNS(=O)(=O)c1ccc(CNC(=O)CBr)cc1`, the T/C (dose: 37.5 mg/kg/injection, schedule: Q01DX001 (ip), vehicle: Klucel (hydroxypropylcellulose) (HPC)) is reported as 107 % of control, the T/C (dose: 75.0 mg/kg/injection, schedule: Q01DX001 (ip), vehicle: Klucel (hydroxypropylcellulose) (HPC)) is reported as 94 % of control and the T/C (dose: 150.0 mg/kg/injection, schedule: Q01DX001 (ip), vehicle: Klucel (hydroxypropylcellulose) (HPC)) is reported as 96 % of control.

For `O=Cc1cccs1`, the T/C [11] was 104 % of control, the T/C (dose: 100.0 mg/kg/injection, schedule: Q04DX002 (ip), vehicle: saline with Tween-80) was 93 % of control and the T/C [12] was 107 % of control. The T/C (dose: 200.0 mg/kg/injection, schedule: Q04DX002 (ip), vehicle: saline with Tween-80) was 100 % of control, the T/C [13] was 118 % of control and the T/C (dose: 400.0 mg/kg/injection, schedule: Q04DX002 (ip), vehicle: saline with Tween-80) was 96 % of control.

With `O=C(Nc1ccc(Cl)cc1C(F)(F)F)Oc1ccc(OCc2ccccc2)cc1` the T/C [11] was 94 % of control, the T/C [12] was 100 % of control and the T/C [13] was 92 % of control.

With `CN(C)/C(=C/c1ccccc1)CS(=O)(=O)N(C)C` the T/C (dose: 75.0 mg/kg/injection, schedule: Q01DX001 (ip), vehicle: carboxymethylcellulose (CMC)) was 106 % of control, the T/C (dose: 150.0 mg/kg/injection, schedule: Q01DX001 (ip), vehicle: carboxymethylcellulose (CMC)) was 97 % of control and the T/C (dose: 300.0 mg/kg/injection, schedule: Q01DX001 (ip), vehicle: carboxymethylcellulose (CMC)) was 89 % of control.

With `COc1cc2cc3c4cc(OC)c(OC)cc4cc[n+]3c(/C=C/c3cc([N+](=O)[O-])ccc3O)c2cc1OC` the T/C (dose: 100.0 mg/kg/injection, schedule: Q01DX001 (ip), vehicle: other) was 97 % of control and 100 % of control, the T/C (dose: 100.0 mg/kg/injection, schedule: Q04DX002 (ip), vehicle: other) was 112 % of control and 92 % of control and the T/C (dose: 100.0 mg/kg/injection, schedule: Q04DX003 (ip), vehicle: other) was 106 % of control. For the same molecule, the T/C (dose: 200.0 mg/kg/injection, schedule: Q01DX001 (ip), vehicle: other) was 97 % of control and 103 % of control, the T/C (dose: 200.0 mg/kg/injection, schedule: Q04DX002 (ip), vehicle: other) was 95 % of control and 88 % of control and the T/C (dose: 200.0 mg/kg/injection, schedule: Q04DX003 (ip), vehicle: other) was 106 % of control. For the same molecule, the T/C (dose: 400.0 mg/kg/injection, schedule: Q01DX001 (ip), vehicle: other) was 96 % of control and 107 % of control, the T/C (dose: 400.0 mg/kg/injection, schedule: Q04DX002 (ip), vehicle: other) was 94 % of control and 98 % of control and the T/C (dose: 400.0 mg/kg/injection, schedule: Q04DX003 (ip), vehicle: other) was 101 % of control.

With `CC(=O)OCC(OC(C)=O)C(OC(C)=O)C(OC(C)=O)C(O)CO` (stereo unspecified) the T/C [9] was 96 % of control, the T/C (dose: 200.0 mg/kg/injection, schedule: Q04DX003 (ip), vehicle: saline) was 96 % of control and the T/C (dose: 400.0 mg/kg/injection, schedule: Q04DX003 (ip), vehicle: saline) was 96 % of control.
